Assay results: patent US12384754B2, “Cocrystals of (1R,3S)-3-(5-cyano-4-phenyl-1,3-thiazol-2-ylcarbamoyl)cyclopentane carboxylic acid” (PALOBIOFARMA, S.L., priority 2020, dated 2025)

Tests used:
[1] = Crystalline stability under accelerated storage conditions (40° C., 75±5 RH %), XRPD; type: physicochemical; settings: for Stability, 1 week / Stability, 2 weeks / Stability, 3 weeks / Stability, 4 weeks: 40° C., 75±5 RH %, XRPD; for Stability under forced conditions (one week) and in 4-weeks stability assay: crystallinity, colour, aspect
Protocol: Crystalline stability study was performed under accelerated stability conditions (40° C., 75±5 RH %) for one week. A sample of each form stored on a XRPD silicon holder was exposed in a climatic chamber. It is worth noting that these conditions are very drastic because the high surface exposed to the storage conditions might favour possible crystalline conversion. The samples were periodically analysed by XRPD to observe possible transformation.
Additional crystalline stability study was performed under accelerated stability conditions (40° C., 75±5 RH %). Cocrystal samples were stored in an open vial and exposed in a climate chamber maintaining the conditions set with accuracy (40° C.-75% RH ±5 RH). These samples were analysed weekly for 1 month.
The stability of the cocrystalline forms of (1R,3S)-3-(5-cyano-4-phenyl-1,3-thiazol ylcarbamoyl) cyclopentane carboxylic acid were studied under accelerated storage conditions (40° C., 75±5 RH %) for one to four week. See results in Table 5.
After time exposure, cocrystals remained stable according to XRPD analysis. Amorphization or appearance of crystalline forms was not detected in the limit of detection of the analysis conditions.

[2] = Hygroscopicity study by DVS (Dynamic Vapour Sorption); type: physicochemical; settings: for moisture content, 15% RH / moisture content, 35% RH / moisture content, 55% RH / moisture content, 75% RH: DVS, 25° C.
Protocol: Hygroscopicity study. The hygroscopicity of cocrystals was determined by DVS (Dynamic Vapour Sorption) with a Q5000 TA instrument. This is a gravimetric technique that measures the amount of water absorbed or desorbed by a sample at different relative humidities (RH). At each RH level, the sample mass must be allowed to reach gravimetric equilibrium (or surpass the time limit) before progressing to the next humidity level. Sorption and desorption isotherms were performed at 25° C. over a range of 0-95% RH. The sample was not previously dried, but it was exposed to 0% RH until reaching a stable weight before starting the DVS cycle. This equilibration step allows the elimination of the possible adsorbed humidity from the atmosphere. The relative humidity (RH) was controlled by a mixture of wet and dry nitrogen stream. The RH was held constant until the equilibrium had been obtained (constant weight) or until the maximum time has been reached, before changing the RH to the next level.

[3] = Plasma pharmacokinetics / oral bioavailability after single IV and PO administration; type: in vivo; settings: male SD rats
Protocol: The objective of this study was to investigate the plasma pharmacokinetics of differentes cocrystals obtained from (1R,3S)-3-(5-cyano-4-phenyl-1, 3-thiazol ylcarbamoyl) cyclopentane carboxylic acid, following a single intravenous (IV) and oral (PO) administration in male SD rats.
Animals were divided into two groups: Group 1 (IV: 1 mg/kg) and Group 2 (PO: 5 mg/kg). Animals in Group 1 and 2 were administered a solution of the different cocrystals of (1R,3S)-3-(5-cyano-4-phenyl-1,3-thiazol-2-ylcarbamoyl) cyclopentane carboxylic acid in normal saline. The blood samples were collected from set of three rats at each time point in labeled micro centrifuge tube containing K2EDTA solution as anticoagulant at Pre-dose, 0.083, 0.25, 0.5, 1, 2, 4, 8 and 24 hr (IV) and Pre-dose, 0.25, 0.5, 1, 2, 4, 6, 8 and 24 hr (PO). Plasma samples were separated by centrifugation of whole blood and stored below −70±10° C. until bioanalysis. All samples were processed for analysis by protein precipitation using acetonitrile and analyzed with fit-for-purpose LC-MS/MS method (LLOQ=1.00 ng/ml). Pharmacokinetic parameters were calculated using the non-compartmental analysis tool of Phoenix WinNonlin® (Version 6.3).

## N#Cc1sc(NC(=O)[C@H]2CC[C@@H](C(=O)O)C2)nc1-c1ccccc1.NC(N)=O [Example 3, cocrystal of (1R,3S)-3-(5-cyano-4-phenyl-1,3-thiazol-2-ylcarbamoyl) cyclopentane carboxylic acid and urea]
[1]
  Stability, 1 week: stable
  Stability, 2 weeks: stable
  Stability, 3 weeks: stable
  Stability, 4 weeks: stable
  Stability under forced conditions (one week) and in 4-weeks stability assay: no crystallinity changes, colour or any other change in the aspect were observed
[2]
  moisture content, 15% RH: 0.015
  moisture content, 35% RH: 0.0339
  moisture content, 55% RH: 0.0545
  moisture content, 75% RH: 0.0895
[2]; at 75% RH
  variation in the moisture content: 0.08%
[2]; usual storage conditions of drugs (<75% RH), up to 75% RH, listed as cocrystal with urea
  Hygroscopicity compared with the free acid: less hygroscopic than free acid
[2]; usual storage conditions of drugs (<75% RH), up to 75% RH, listed as urea cocrystal
  Hygroscopicity compared with the free acid: less hygroscopicity than the free acid
[3]; iv, 1 mg/Kg
  AUClast: 2714.55 ng·h/mL
  Clearance: 6.12 mL/min/kg
[3]; po 5 mg/Kg vs iv 1 mg/Kg
  F % (bioavailability): 100%
[3]; po, 5 mg/Kg
  AUClast: 19238.03 ng·h/mL
  Cmax: 10227.47 ng/mL

## N#Cc1sc(NC(=O)[C@H]2CC[C@@H](C(=O)O)C2)nc1-c1ccccc1.NC(=O)c1cccnc1 [Example 4, cocrystal of (1R,3S)-3-(5-cyano-4-phenyl-1,3-thiazol-2-ylcarbamoyl) cyclopentane carboxylic acid and nicotinamide]
[1]
  Stability, 1 week: stable
  Stability, 2 weeks: stable
  Stability, 3 weeks: stable
  Stability, 4 weeks: stable
  Stability under forced conditions (one week) and in 4-weeks stability assay: no crystallinity changes, colour or any other change in the aspect were observed
[2]
  moisture content, 15% RH: 0.029
  moisture content, 35% RH: 0.066
  moisture content, 55% RH: 0.165
  moisture content, 75% RH: 0.4584
[2]; range between 5-70% RH
  Hygroscopicity compared with the free acid: less hygroscopicity than the free acid
